Test results taken from ChEMBL document CHEMBL3507680, “University of Dundee, Gates Library screen for HepG2 cell viability”.

Experiment: Human HepG2 cell viability assay in 384 well format
Assay type: toxicity, cell-based
Parameters: dose 125 nL, time 70.5 hour; concentration not given beside the values
Settings: HepG2 cells, read-out: Inhibition

SMILES	cytotoxicity at 70.5 h [%]
COc1ccccc1CCN(C)C(C)c1nc(-c2cccnc2)no1 (configuration not stated)	21.2
Cc1cc(N2CCCN(C(=O)Cc3cc(F)cc(F)c3)CC2)ccn1	-1.71
CN(C)C(=O)N1CC2(CCNCC2)c2cc(F)ccc21	-8.45
Cc1ccsc1[C@@H]1CCN(C(=O)Cc2ccc(O)cc2)C[C@H]1O	-2.32
CCSc1cncc(N2CCC(C(=O)NC(C)C(C)C)CC2)n1 (configuration not stated)	-3.06
CNc1cc(C2CCCN(Cc3ccccc3OCC(=O)O)C2)ccn1 (configuration not stated)	-8.72
CCC1CN(c2ncnc3nc[nH]c23)CCO1 (configuration not stated)	11.7
CC(c1cc(O)nc(NC2CCCC2)n1)n1ncc2ccccc2c1=O (configuration not stated)	-8.36
OCCC1CN(c2ncnc3[nH]cnc23)CCN1Cc1ccccc1F (configuration not stated)	5.32
Cc1cc(C)n(C2CN(CC(=O)N(C)Cc3ccsc3)C2)n1	-1.75
Cc1cnc2n(c1=O)C(CC(=O)NCc1ccco1)CS2 (configuration not stated)	-0.737
CCOCC(O)CN1CCN(C(=O)C2CCCC2)CC1 (configuration not stated)	-0.535
O=C(O)COc1ccc(CN2CCCC(CCc3ccccc3)C2)cc1 (configuration not stated)	20.1
Cc1cc(CNC(=O)c2cc(COc3cncc(Cl)c3)on2)n[nH]1	16
COCCCN(Cc1cnc(C2CCCCC2)nc1)C1CCN(C)CC1	-16.3
COc1cc(C)ccc1OCc1nc(C(=O)N2CCCC2)co1	0.58
CN(C)Cc1ccccc1CN(C)c1ncnc2[nH]ccc12	-9.22
COCCc1ncc(CN2CCCC(C(=O)c3ccccc3)C2)cn1 (configuration not stated)	-26
CN(Cc1cnn(C)c1)CC(O)c1ccc2c(c1)OCCCO2 (configuration not stated)	17.4
COc1ccccc1C(=O)C1CCCN(c2cc(C#N)ccn2)C1 (configuration not stated)	-1.63
COC(=O)[C@@H]1Cc2ncn(C)c2CN1S(=O)(=O)c1ccc(C)cc1	-8.32
Cc1c(C2=NS(=O)(=O)N(C)C(C(=O)Nc3ccc(Br)cc3)=C2)cnn1C	22.2
CN(C)CCN(CC1CCCO1)S(=O)(=O)NCc1ccccc1 (configuration not stated)	-6.41

SMILES	cytotoxicity at 70.5 h [%]
Cc1ccc(CN2CCCn3c(nc(Cn4ccnc4)cc3=O)C2)s1	8.11
Cc1noc(C)c1CC(=O)NCC1(O)CCCN(c2ccccn2)C1 (configuration not stated)	13.4
CN(Cc1cccc(OC(F)(F)F)c1)Cc1cnn(C)c1	-12.4
O=C(c1ccon1)N1CCCCC1c1nc2cc(F)ccc2[nH]1 (configuration not stated)	-5.01
O=C(c1cc(CC2(NC3CCCCC3)COC2)no1)N1CCCCC1	11.7
O=C(c1cnccn1)N(CCO)Cc1cc(Br)ccc1F	-5.51
Cc1cccc(C)c1NC(=O)c1cc(S(N)(=O)=O)c(C)o1	20.8
Cc1ccc(CN2C[C@@H]3COC[C@H](NS(C)(=O)=O)[C@@H]3C2)o1	-12.4
c1ccc(CCCN2CCCN(c3ncnc4[nH]ccc34)CC2)cc1	-15.3
CCC(C)C(=O)N(C)Cc1cc(F)ccc1N1CCC(OC)CC1 (configuration not stated)	-10.5
O=C(c1ccoc1)N1CC[C@@H]2O[C@@H](COCC3CCOCC3)CC[C@@H]21	16
CC(=O)N1CCCN(CCCc2ccccc2)CC1	-6.32
O=C(CCc1ccsc1)N1CCC(Cc2ccc(CO)cc2)C1 (configuration not stated)	-3.39
CN(C(=O)CN1CCOC(Cn2cccn2)C1)c1nccs1 (configuration not stated)	9.89
Cc1oc(-c2ccco2)nc1CC(=O)N1CCN(CC(C)(C)O)CC1	-17.8
CC1(C)Cc2cc(-c3cncn3CCNC3CCS(=O)(=O)C3)ccc2O1 (configuration not stated)	-0.723
Cc1cc(CN(C)C(=O)NCc2ccco2)no1	-2.34
CCc1nc(CN2CCCN(c3nc4ccccc4o3)CC2)no1	6.35
CC(NCCN1CCN(C(=O)C2CCCC2)CC1)c1ccccn1 (configuration not stated)	-2.99
OCCN1CCN(Cc2cn(-c3ccccc3)nn2)CC1	-11.9
CN1C(Cn2cccn2)C[C@@H]2CN(Cc3cnn(C)c3)CC[C@@H]21 (some centres not stated)	-11.7
Cc1cnc(N2CCC3(CCC(C(=O)NC(C)C)C3)CC2)nc1 (configuration not stated)	-7.58
COCC1CN(Cc2cccnc2)Cc2nnn(CC3CC3)c21 (configuration not stated)	19.4

SMILES	cytotoxicity at 70.5 h [%]
Cc1csc(CN2CC[C@H]3C[C@H](c4nc(C)no4)O[C@@H]3C2)n1	-10.4
Cc1noc(C)c1CNC(=O)N1CCC(C(O)c2ccccc2)CC1 (configuration not stated)	-6
COCCN1CCC(CNC(=O)C2(c3cccc(C)c3)CC2)C1 (configuration not stated)	17.2
COc1ccc(CN2CCO[C@H]3CN(C4CCC4)CC[C@H]3C2=O)cc1	-0.486
O=C(NCC(O)COc1cccc(F)c1)c1ccoc1 (configuration not stated)	-13.2
Cc1ccc2c(c1)c(CNC(=O)C1CC(=O)N(C3CCCC3)C1)nn2C (configuration not stated)	16.8
CCOc1ncccc1CNC(=O)N1CCCC1c1cc(C)no1 (configuration not stated)	-12.6
CN(Cc1ccncc1)C(=O)NCc1cn(-c2ccccc2)nn1	-8.45
O=C([C@H]1CN(Cc2cccnc2)C[C@H]2OCC[C@@H]12)N1CCCO1	-6.93
CCc1ncc2c(n1)CN(CC(=O)Nc1cc(C)no1)CC2	-0.924
CNC(=O)c1ccc(CN(C)c2ccc(C(F)(F)F)cn2)cc1	6.65
CC(C)S(=O)(=O)NC(=O)c1cc(-c2cccc(Cl)c2)no1	-11.8
O=C(CCCn1cncn1)N1CCC2(CCCN(CC3CC3)C2=O)C1 (configuration not stated)	18.3
CN(Cc1cccc(F)c1)C(=O)CN1CCCCC1Cn1cncn1 (configuration not stated)	-9.08
COCCN1CCC2(CC1)CN(C(C)=O)c1ccc(C)cc12	4.91
CCOC(=O)N1[C@@H](c2ccco2)[C@@H](C(=O)O)C[C@]12CCCCNC2=O	-7.52
O=C1CCC(=O)N1CCOc1nc(-c2ccccc2Cl)no1	-77.6
Cc1cc2n(n1)CCN(c1nc(N(C)C)nc3c1CCNC3)C2	14.4
CS(=O)(=O)NCc1cc2n(n1)CCCN(Cc1ccc(Cl)s1)C2	-9.1
CCc1ccccc1CN1CCN(Cc2ncc[nH]2)[C@H]2CS(=O)(=O)C[C@H]21	-3.46
CC[C@H](C)[C@H](N)C(=O)N1CC(=O)c2sc(NCc3ccccc3)nc2C1	7.34
Cn1ncc2c(N[C@@H]3C[C@@H]4CC[C@H]3C4)nc(-c3ccncc3)nc21	-2.05
c1ccc(-n2ccc(CN3CCOC(Cn4cncn4)C3)n2)cc1 (configuration not stated)	-8.56

SMILES	cytotoxicity at 70.5 h [%]
O=C(NCc1ccccn1)[C@@]12CCO[C@@H]1CCN(c1ncccn1)C2	-4.87
Cn1cc(-c2nnn3c2COC(CNCC2CCOCC2)C3)cn1 (configuration not stated)	-7.48
CCc1n[nH]c(C2CN(C(=O)Cc3cccs3)CCO2)n1 (configuration not stated)	25.1
CCc1cnc(CN(C)C2CCN(c3sccc3C#N)C2=O)s1 (configuration not stated)	13.4
Cc1oc(C(=O)O)cc1S(=O)(=O)Nc1cc(Br)ccc1F	-7.4
Cc1cc(C)c(CNC(=O)N(C)Cc2sccc2C)c(=O)[nH]1	-10.7
CCc1ccccc1OCCNCCc1c[nH]cn1	29.6
COCC(=O)NC(Cc1cc(N(C)C)nc(C2CC2)n1)c1ccccc1 (configuration not stated)	-2.08
COCCN(C)C(=O)c1ccccc1-n1cccn1	5.05
COc1ccc2c(c1)CC(C(=O)N(C)CCCc1cnn(C)c1)CO2 (configuration not stated)	-8.48
O=C1CC(c2ccc3c(c2)OCO3)c2cnn(C3CCCC3)c2N1 (configuration not stated)	-15.7
COc1c(Br)c(C(=O)NC2CCCCC2)nn1C	-15
O=C(c1ccnnc1)N1C[C@@H](OCC2CCOCC2)[C@H]2OCCC[C@H]21	-12.9
COCCOCC(=O)N1C[C@H]2CC[C@@H]1CN(C1Cc3ccccc3C1)C2	-9.96
CS(=O)(=O)NC1CCN(C(=O)NCc2ccccn2)CC1	-2.65
N#CCCN(CCC#N)C(=O)c1ccc(OCC2CC2)cc1	-7.55
CN(C)S(=O)(=O)N1C[C@@H](OCc2cccnc2)[C@H]2OCCC[C@H]21	12.6
Cc1ccc(OCCNc2cccc(C(=O)N3CCOCC3)c2)cc1	23.6
Cn1nc(C(=O)N2CCOCC2)cc1C(=O)Nc1ncc(Cl)cc1Cl	14.9
CCn1cc(CNc2ccc(Br)c(OC)c2)cn1	4.22
Cn1nc(C(=O)NC2CCCCC2)cc1NC(=O)C1CC1	-5.38
CC(C)N(C)Cc1cnc2n1CCN(Cc1cccc(F)c1)C2	-4.8
C=C(C)COc1ccccc1C(=O)NCCCc1nnn[nH]1	-13

SMILES	cytotoxicity at 70.5 h [%]
CN1C(=O)CCc2cc(NC(=O)C3CC3)ccc21	10.6
CCNC(=O)Nc1ccc2c(ccn2CC(=O)N(CC)CC)c1	-0.739
Cc1cnn(CC2CCCCN2C(=O)c2c(C)noc2C)c1 (configuration not stated)	-0.615
CCC(C)CN1CCC(n2cc(C3CCCCC3)nn2)CC1 (configuration not stated)	14.7
CN(C)CCCC(=O)NC1CC(C)(C)Cc2nc(C(C)(C)C)ncc21 (configuration not stated)	-17.7
c1ccc(CCN2CC(n3cccn3)C2)nc1	-15.6
O=C1CCc2cc(NC(=O)C3CCCN3c3nccs3)ccc2N1 (configuration not stated)	-1.9
CN1CCCC1CCNC(=O)c1ccccc1-n1cc(CN)cn1 (configuration not stated)	1.23
COCCNC(=O)Nc1cccc2c1CCN(S(C)(=O)=O)C2	-0.282
N[C@H]1CN(C(=O)c2ccc3[nH]c(CO)nc3c2)C[C@@H]1c1ccccc1	-19.4
CC(C)c1nnc2n1CCN(Cc1csc(-c3cnn(C)c3)n1)C2	-2.14
COc1cc(C(C)NCc2c[nH]nc2C)ccc1OCCO (configuration not stated)	7.95
CC(=O)Nc1cc(CN(C)C)ccc1C	-6.9
Cc1ccnn1CC(=O)N(C)Cc1cnn(-c2ccccc2)c1	-1.98
Cc1ncccc1Oc1ncnc(N2CCC(O)(CO)CC2)c1C	-6.21
COc1ccc(OCC(=O)n2nc(C)c(C)c2C)cc1	3.85
CC(=O)c1ccc(Cl)c(Cl)c1OCC(=O)NC(N)=O	14.2
Cc1ccc2nc(CNCCCN3CCCC3)cc(O)c2c1	-9.2
Cn1ncc(N2CCC(CNC(=O)[C@@H](N)C3CCCCC3)CC2)cc1=O	3.03
C[C@@H]1CN(C(=O)CCCN2CCOCC2)C[C@@]1(O)C1CC1	-5.23
